# From US12173018B2, “Penicillin-binding protein inhibitors” (priority 2018, dated 2024)
# Like-named read-outs stand apart in the source and are kept apart here.
# Legend:
# [1] = test system: E. coli DH5α empty pLBII vector control strain; experiment: microbe, parasite or virus in culture; assay type: cell-based, Escherichia coli; conditions: Escherichia coli, read-out: Microbiological Activity (MIC in mg/L), E. coli DH5α/pLBII
# How it was run: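 Broth microdilution in cation-supplemented Mueller-Hinton broth used a starting inoculum of 5×10^5 CFU/mL of E. coli DH5α carrying empty pLBII vector. Plates were incubated 16–20 h at 37 °C. MIC was read visually as the lowest concentration showing no growth.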
# [2] = test system: engineered strain of Escherichia coli harboring CTX-M15; experiment: microbe, parasite or virus in culture; assay type: cell-based; conditions: Escherichia coli, read-out: Microbiological Activity (MIC in mg/L), E. coli DH5α/pLBII-CTX-M15, engineered strain producing CTX-M15
# E. coli PBP1a = E. coli PBP1a (Escherichia coli (strain K12), UniProt P02918); experiment: Radioligand competition binding assay with 14C-labeled boronic acid probe, PBP1a
# How it was run: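 Purified E. coli PBP1a (0.1 μM) preincubated 60 min with test boronic acid inhibitor in 20 mM Tris pH 7.5, 500 mM NaCl, 0.1% Triton X-100, then 60 min with 20 μM ^14C-labeled boronic acid probe. Bound probe recovered by spin desalting and counted by scintillation; EC50 reported.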
# E. coli PBP1b = E. coli PBP1b (Escherichia coli (strain K12), UniProt P02919); experiment: Radioligand competition binding assay with 14C-labeled boronic acid probe, PBP1b
# P. aeruginosa ATCC 27853 = experiment: Broth microdilution MIC, P. aeruginosa ATCC 27853; assay type: cell-based; conditions: Pseudomonas aeruginosa
# Description: To determine the ability of test compounds to potentiate the inhibition of the growth of bacterial strains, classic cell based broth microdilution minimum inhibitory concentration (MIC) assays were employed. MIC assays are performed according to CLSI methods except where otherwise noted (CLSI, 2011 and CLSI, 2009). The reference type strain E. coli ATCC 25922, the wild-type parent strain E. coli AG100, the hyper-permeable E. coli 901C and E. coli D22 and the E. coli AG100A strain lacking the acrAB efflux pump encoding genes were used to determine the ability of the PBP inhibitors to penetrate the outer membrane of gram-negative bacteria and inhibit bacterial growth. […] The P. aeruginosa PAO1, P. aeruginosa ATCC 27853 and A. baumannii ATCC 19606, along with the hyper-permeable P. aeruginosa ATCC 35151 and an engineered efflux pump-compromised strain of P. aeruginosa (ΔmexAB-oprM) were used to determine the ability of PBP inhibitors to penetrate the outer membrane of P. aeruginosa and A. baumannii and assess antibacterial activity against these important gram-negative organisms.
# Briefly, cryo-preserved bacterial cultures of challenge strains are streaked for isolation on appropriate agar medium, in this case Mueller Hinton II agar. Following incubation to allow growth of the colonies, plates are sealed with parafilm and stored refrigerated for up to two weeks. For preparation of assay inoculum and to ensure low variability, at least 5 colonies are picked from the agar plates with an inoculating loop and aseptically transferred to a culture tube containing 3 mL of Mueller-Hinton Broth (supplemented with divalent cations to required levels based on Manufacturers' certification). The broth culture is grown for 3-5 hours at 37° C. with shaking at 200 rpm. Meanwhile, 2-fold serial dilutions of test compounds are conducted in a 96 well plate with a final volume of 75 μL per well at 2-fold the final desired concentration. After the dilution plates are set up the growing cultures are then diluted in a cuvette containing MH II broth and the optical density is measured at 600 nm. The Inoculum is diluted such that 75 μL of this culture in Mueller-Hinton Broth results in a starting bacterial concentration of 5×10^5 CFU/mL when added to the dilution plates. The plates are incubated for 16-20 hours at 37° C. The MIC values are read visually as the lowest concentration well with no bacterial growth.
# [3] = ATCC27853, P. aeruginosa ATCC 27853, broth microdilution, read-out: MIC P. aeruginosa ATCC 27853
# Sequence of E. coli PBP1a (P02918 whole entry): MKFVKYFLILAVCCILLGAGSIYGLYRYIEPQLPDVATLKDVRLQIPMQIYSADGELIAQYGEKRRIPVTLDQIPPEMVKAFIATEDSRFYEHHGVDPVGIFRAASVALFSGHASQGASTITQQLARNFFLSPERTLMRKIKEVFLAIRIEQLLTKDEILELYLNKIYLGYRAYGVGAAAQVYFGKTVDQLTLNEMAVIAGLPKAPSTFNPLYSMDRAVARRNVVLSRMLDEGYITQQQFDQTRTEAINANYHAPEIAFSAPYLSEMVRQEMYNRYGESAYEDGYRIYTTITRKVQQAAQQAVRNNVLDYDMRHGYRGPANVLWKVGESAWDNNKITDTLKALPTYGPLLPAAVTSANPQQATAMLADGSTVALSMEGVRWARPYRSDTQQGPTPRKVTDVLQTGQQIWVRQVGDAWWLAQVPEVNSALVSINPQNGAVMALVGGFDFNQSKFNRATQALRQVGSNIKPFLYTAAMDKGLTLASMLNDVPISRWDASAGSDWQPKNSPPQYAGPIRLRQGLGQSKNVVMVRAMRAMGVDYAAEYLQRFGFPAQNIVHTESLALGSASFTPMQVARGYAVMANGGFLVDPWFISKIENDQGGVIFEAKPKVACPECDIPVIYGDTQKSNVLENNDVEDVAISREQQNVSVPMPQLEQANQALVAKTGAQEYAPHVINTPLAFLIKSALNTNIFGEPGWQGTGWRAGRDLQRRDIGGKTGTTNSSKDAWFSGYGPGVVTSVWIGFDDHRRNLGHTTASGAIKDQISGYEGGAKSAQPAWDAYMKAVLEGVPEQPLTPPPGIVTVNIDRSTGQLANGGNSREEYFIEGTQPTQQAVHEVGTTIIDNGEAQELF
# Sequence of E. coli PBP1b (P02919 whole entry): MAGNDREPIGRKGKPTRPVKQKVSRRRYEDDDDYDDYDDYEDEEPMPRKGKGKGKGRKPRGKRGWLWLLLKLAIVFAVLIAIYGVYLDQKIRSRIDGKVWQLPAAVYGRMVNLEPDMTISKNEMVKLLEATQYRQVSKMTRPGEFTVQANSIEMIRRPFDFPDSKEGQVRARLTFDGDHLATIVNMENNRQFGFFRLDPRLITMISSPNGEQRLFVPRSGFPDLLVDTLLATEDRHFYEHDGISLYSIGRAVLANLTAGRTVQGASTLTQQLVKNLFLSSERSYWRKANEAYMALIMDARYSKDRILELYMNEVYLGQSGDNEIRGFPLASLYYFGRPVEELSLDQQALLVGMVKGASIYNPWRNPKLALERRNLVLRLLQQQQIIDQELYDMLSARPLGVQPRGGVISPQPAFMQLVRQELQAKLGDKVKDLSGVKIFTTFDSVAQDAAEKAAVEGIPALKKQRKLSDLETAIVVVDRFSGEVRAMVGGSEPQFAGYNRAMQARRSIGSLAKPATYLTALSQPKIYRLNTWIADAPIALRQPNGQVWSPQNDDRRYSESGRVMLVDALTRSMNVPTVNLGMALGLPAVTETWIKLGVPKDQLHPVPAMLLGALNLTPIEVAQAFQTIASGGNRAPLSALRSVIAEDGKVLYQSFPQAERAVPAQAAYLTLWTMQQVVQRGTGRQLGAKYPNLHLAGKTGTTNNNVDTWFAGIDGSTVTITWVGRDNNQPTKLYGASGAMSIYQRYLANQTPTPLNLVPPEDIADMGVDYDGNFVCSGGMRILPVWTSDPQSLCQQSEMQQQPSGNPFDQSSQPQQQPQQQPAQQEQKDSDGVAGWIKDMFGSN
smiles,measurement,setting,value
"CCN1CCN(C(=O)NC(C(=O)N[C@H]2Cc3cccc(C(=O)O)c3OB2O)c2ccc(O)cc2)C(=O)C1=O (stereo partly drawn) [Example 27, (3R)-3-(2-(4-ethyl-2,3-dioxopiperazine-1-carboxamido)-2-(4-hydroxyphenyl)acetamido)-2-hydroxy-3,4-dihydro-2H-benzo[e][1,2]oxaborinine-8-carboxylic acid]",MIC,[1],8 to 16 mg/L
same,MIC,[2],8 to 16 mg/L
same,EC50,E. coli PBP1a,< 10 µM
"O=C(O)c1cccc2c1OB(O)[C@@H](NC(=O)C(NC(=O)N1CCN(CCF)C(=O)C1=O)c1ccc(O)c(O)c1Cl)C2 (stereo partly drawn) [Example 71, (3R)-3-(2-(2-chloro-3,4-dihydroxyphenyl)-2-(4-(2-fluoroethyl)-2,3-dioxopiperazine-1-carboxamido)acetamido)-2-hydroxy-3,4-dihydro-2H-benzo[e][1,2]oxaborinine-8-carboxylic acid]",MIC,[2],8 to 16 mg/L
same,EC50,E. coli PBP1b,< 10 µM
same,EC50,E. coli PBP1a,< 10 µM
"NCCCN1CCN(C(=O)NC(C(=O)N[C@H]2Cc3cccc(C(=O)O)c3OB2O)c2ccc(O)c(O)c2Cl)C(=O)C1=O (stereo partly drawn) [Example 233, (3R)-3-(2-(4-(3-aminopropyl)-2,3-dioxopiperazine-1-carboxamido)-2-(2-chloro-3,4-dihydroxyphenyl)acetamido)-2-hydroxy-3,4-dihydro-2H-benzo[e][1,2]oxaborinine-8-carboxylic acid]",MIC,P. aeruginosa ATCC 27853; [3],2 to 4 µg/mL
"CCN1C[C@H](CO)N(C(=O)NC(C(=O)N[C@H]2Cc3cccc(C(=O)O)c3OB2O)c2ncc(O)cc2F)C(=O)C1=O (stereo partly drawn) [Example 234, (3R)-3-(2-((R)-4-ethyl-6-(hydroxymethyl)-2,3-dioxopiperazine-1-carboxamido)-2-(3-fluoro-5-hydroxypyridin-2-yl)acetamido)-2-hydroxy-3,4-dihydro-2H-benzo[e][1,2]oxaborinine-8-carboxylic acid]",MIC,"P. aeruginosa ATCC 27853; ATCC27853, read-out: MIC P. aeruginosa ATCC 27853",> 128 µg/mL
"CCNC(=O)NCCN1CCN(C(=O)NC(C(=O)N[C@H]2Cc3cccc(C(=O)O)c3OB2O)c2ccc(O)c(O)c2Cl)C(=O)C1=O (stereo partly drawn) [Example 235, (3R)-3-(2-(2-chloro-3,4-dihydroxyphenyl)-2-(4-(2-(3-ethylureido)ethyl)-2,3-dioxopiperazine-1-carboxamido)acetamido)-2-hydroxy-3,4-dihydro-2H-benzo[e][1,2]oxaborinine-8-carboxylic acid]",MIC,P. aeruginosa ATCC 27853; [3],8 to 16 µg/mL
"NCCCN1CCN(C(=O)N[C@@H](C(=O)N[C@H]2Cc3ccc(F)c(C(=O)O)c3OB2O)c2ccc(O)c(O)c2Cl)C(=O)C1=O [Example 236, (R)-3-((R)-2-(4-(3-aminopropyl)-2,3-dioxopiperazine-1-carboxamido)-2-(2-chloro-3,4-dihydroxyphenyl)acetamido)-7-fluoro-2-hydroxy-3,4-dihydro-2H-benzo[e][1,2]oxaborinine-8-carboxylic acid]",MIC,P. aeruginosa ATCC 27853; [3],0.5 to 1 µg/mL
"CCN1C[C@H](CO)N(C(=O)NC(C(=O)N[C@H]2Cc3ccc(F)c(C(=O)O)c3OB2O)c2ccc(O)c(O)c2Cl)C(=O)C1=O (stereo partly drawn) [Example 237, (3R)-3-(2-(2-chloro-3,4-dihydroxyphenyl)-2-((R)-4-ethyl-6-(hydroxymethyl)-2,3-dioxopiperazine-1-carboxamido)acetamido)-7-fluoro-2-hydroxy-3,4-dihydro-2H-benzo[e][1,2]oxaborinine-8-carboxylic acid]",MIC,P. aeruginosa ATCC 27853; [3],0.5 to 1 µg/mL
"CCN1C[C@H](CCN)N(C(=O)NC(C(=O)N[C@H]2Cc3ccc(F)c(C(=O)O)c3OB2O)c2ccc(O)c(O)c2Cl)C(=O)C1=O (stereo partly drawn) [Example 238, (3R)-3-(2-((S)-6-(2-aminoethyl)-4-ethyl-2,3-dioxopiperazine-1-carboxamido)-2-(2-chloro-3,4-dihydroxyphenyl)acetamido)-7-fluoro-2-hydroxy-3,4-dihydro-2H-benzo[e][1,2]oxaborinine-8-carboxylic acid]",MIC,P. aeruginosa ATCC 27853; [3],2 to 4 µg/mL
"CNCCN1CCN(C(=O)NC(C(=O)N[C@H]2Cc3cccc(C(=O)O)c3OB2O)c2ccc(O)c(O)c2Cl)C(=O)C1=O (stereo partly drawn) [Example 239, (3R)-3-(2-(2-chloro-3,4-dihydroxyphenyl)-2-(4-(2-(methylamino)ethyl)-2,3-dioxopiperazine-1-carboxamido)acetamido)-2-hydroxy-3,4-dihydro-2H-benzo[e][1,2]oxaborinine-8-carboxylic acid]",MIC,P. aeruginosa ATCC 27853; [3],8 to 16 µg/mL
